Biological target: T1, recombinant human FAAH (rhFAAH) (Homo sapiens, UniProt O00519)
T1 construct: purchased Cayman Chemical (Ann Arbor, Mich., USA)
T1 sequence (O00519 1-579): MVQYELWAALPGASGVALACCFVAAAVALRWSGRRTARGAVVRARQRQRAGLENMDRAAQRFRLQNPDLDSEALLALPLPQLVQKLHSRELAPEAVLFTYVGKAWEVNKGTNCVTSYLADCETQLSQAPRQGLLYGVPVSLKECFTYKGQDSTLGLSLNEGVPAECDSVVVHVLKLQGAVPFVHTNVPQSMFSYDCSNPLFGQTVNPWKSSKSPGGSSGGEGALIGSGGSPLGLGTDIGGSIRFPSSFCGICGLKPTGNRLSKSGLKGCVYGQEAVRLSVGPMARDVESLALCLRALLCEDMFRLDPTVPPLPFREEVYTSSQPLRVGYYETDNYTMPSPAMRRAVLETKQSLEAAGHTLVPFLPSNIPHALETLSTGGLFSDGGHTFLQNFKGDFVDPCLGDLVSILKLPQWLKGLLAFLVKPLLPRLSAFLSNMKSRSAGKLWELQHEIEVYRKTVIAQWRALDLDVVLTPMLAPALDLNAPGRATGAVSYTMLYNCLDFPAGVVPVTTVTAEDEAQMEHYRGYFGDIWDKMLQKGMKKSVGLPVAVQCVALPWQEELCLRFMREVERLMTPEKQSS
Assay: FAAH substrate evaluation (formation of acid metabolite, LC-MS/MS)
Assay type: in vitro ADME
Settings: 0.5 ng/μL rhFAAH, 1 μM test compound, pH 8.0, room temperature, 0-60 minutes
Method: Purified recombinant human FAAH (rhFAAH) was purchased from Cayman Chemical (Ann Arbor, Mich., USA). The total volume for each incubation was 400 μL containing a final 0.5 ng/μL rhFAAH, 1 μM test compound, 1.25% ethanol or 1 μM PF-3845 (FAAH inhibitor), and 0.1% bovine serum albumin in Tris-EDTA buffer at pH 8.0). The positive control was LL-341001. The incubation was conducted at the room temperature. At 0, 5, 15, 30 and 60 minutes, an aliquot of 30 μL reaction mixtures was removed and mixed with 300 μL acetonitrile containing 5 ng/mL terfenadine and 10 ng/mL tolbutamide as internal standards to quench the reaction. The resulting mixture was centrifuged at 4000 rpm, 4° C. for 15 minutes, and 100 μL supernatant was ready for LC-MS/MS analysis to measure the formation of acid metabolite.
Acquity Ultra Performance LC system from Waters was used for sample analysis. The chromatography was performed on a reverse phase Kinetex 2.6 μm C18 column, 2.1×30 mm, 100 Å. The mobile phase A comprised of 0.10% formic acid in water and mobile phase B comprised of 0.1% formic acid in acetonitrile with a 2-min run time at the flow rate of 0.8 mL/min for the acid metabolite from positive control or a 1.5 min run time at the flow rate of 0.9 mL/min for the acid metabolite of test compounds. The mass spectrometer (API-5500 and API Q Trap 4000 Applied Biosystems/MDS SCIEX Instruments, Framingham, Mass., USA) was operated under ESI positive or negative ion MRM mode.
The formation of acid metabolite was monitored and quantified using one calibration point of 1 μM. The observed rate constant (ke) for the acid metabolite formation was calculated by plotting the metabolite concentration versus time of incubation with the slope being ke and is shown in Table 4.

SMILES	ke, observed rate constant for the acid metabolite formation
CNC(=O)COc1ccc(Cc2ccc(O)c(C(C)C)c2F)c(C(C)C)c1 [Compound 43, 2-(4-(2-fluoro-4-hydroxy-3-isopropylbenzyl)-3-isopropylphenoxy)-N-methylacetamide]	A (A = ke is less than 2.0 and more than or equal to 0.05)
CNC(=O)COc1cc(C(C)C)c(Cc2ccc(O)c(C(C)C)c2)cc1F [Compound 47, 2-(2-fluoro-4-(4-hydroxy-3-isopropylbenzyl)-5-isopropylphenoxy)-N-methylacetamide]	A (A = ke is less than 2.0 and more than or equal to 0.05)
CC(C)c1cc(Cc2cc(F)c(OCC(=O)N(C)C)cc2C(C)C)ccc1O [Compound 48, 2-(2-fluoro-4-(4-hydroxy-3-isopropylbenzyl)-5-isopropylphenoxy)-N,N-dimethylacetamide]	A (A = ke is less than 2.0 and more than or equal to 0.05)

Reference: US20230242473A1, “THYROMIMETICS” (Autobahn Therapeutics, Inc., priority 2020, published 2023)
